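Protocol summary: plate cells (96-well), add compound at 5 concentrations, incubate 48 h, interpolate endpoints linearly. GI50 = concentration required for 50% inhibition of growth. TGI denotes the concentration required for complete inhibition of growth.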
Legend:
Assay in all cases: NCI-60 cell line screen, 48 h
786-0 renal = system: 786-0 renal
A498 renal = system: A498 renal
A549 NSCLC = system: A549 NSCLC
ACHN renal = system: ACHN renal
BT-549 breast = system: BT-549 breast
CCRF-CEM leukemia = system: CCRF-CEM leukemia
COLO 205 colon = system: COLO 205 colon
DU-145 prostate = system: DU-145 prostate
EKVX NSCLC = system: EKVX NSCLC
HCC-2998 colon = system: HCC-2998 colon
HCT-15 colon = system: HCT-15 colon
HL-60(TB) leukemia = system: HL-60(TB) leukemia
HOP-62 NSCLC = system: HOP-62 NSCLC
HOP-92 NSCLC = system: HOP-92 NSCLC
HS 578T breast = system: HS 578T breast
HT29 colon = system: HT29 colon
IGROV1 ovarian = system: IGROV1 ovarian
K-562 leukemia = system: K-562 leukemia
KM12 colon = system: KM12 colon
LOX IMVI melanoma = system: LOX IMVI melanoma
M14 melanoma = system: M14 melanoma
MALME-3M melanoma = system: MALME-3M melanoma
MDA-MB-231 breast = system: MDA-MB-231 breast
MDA-MB-435 = system: MDA-MB-435
MOLT-4 leukemia = system: MOLT-4 leukemia
NCI-H226 lung = system: NCI-H226 lung
NCI-H23 lung = system: NCI-H23 lung
NCI-H460 lung = system: NCI-H460 lung
NCI-H522 lung = system: NCI-H522 lung
NCI/ADR-RES ovarian = system: NCI/ADR-RES ovarian
OVCAR-3 ovarian = system: OVCAR-3 ovarian
OVCAR-4 ovarian = system: OVCAR-4 ovarian
OVCAR-5 ovarian = system: OVCAR-5 ovarian
OVCAR-8 ovarian = system: OVCAR-8 ovarian
PC-3 prostate = system: PC-3 prostate
RPMI-8226 leukemia = system: RPMI-8226 leukemia
RXF 393 renal = system: RXF 393 renal
SF-268 CNS = system: SF-268 CNS
SF-295 CNS = system: SF-295 CNS
SF-539 CNS = system: SF-539 CNS
SK-MEL-2 melanoma = system: SK-MEL-2 melanoma
SK-MEL-28 melanoma = system: SK-MEL-28 melanoma
SK-MEL-5 melanoma = system: SK-MEL-5 melanoma
SK-OV-3 ovarian = system: SK-OV-3 ovarian
SN12C renal = system: SN12C renal
SNB-19 CNS = system: SNB-19 CNS
SNB-75 CNS = system: SNB-75 CNS
SR leukemia = system: SR leukemia
SW-620 colon = system: SW-620 colon
T-47D breast = system: T-47D breast
TK-10 renal = system: TK-10 renal
U251 CNS = system: U251 CNS
UACC-257 melanoma = system: UACC-257 melanoma
UACC-62 melanoma = system: UACC-62 melanoma
UO-31 renal = system: UO-31 renal

In the case of `C=C1C(=O)O[C@H]2[C@H]1CC/C(COC(=O)CCCCCCCCC(=O)OC/C1=C/CC[C@@]3(C)O[C@H]3[C@H]3OC(=O)C(=C)[C@@H]3CC1)=C\CC[C@@]1(C)O[C@@H]21`, the GI50 (786-0 renal) is reported as 1.75 µM, the TGI (786-0 renal) is reported as 3.41 µM and the GI50 (A498 renal) is reported as 5.82 µM. For the same compound, the TGI (A498 renal) was 18 µM, the GI50 (A549 NSCLC) was 6.63 µM and the TGI (A549 NSCLC) was 22.1 µM. It also gave a GI50 (ACHN renal) of 1.8 µM, a TGI (ACHN renal) of 3.55 µM and a GI50 (BT-549 breast) of 1.54 µM. The TGI (BT-549 breast) was 3.22 µM, the GI50 (CCRF-CEM leukemia) was 2.02 µM and the TGI (CCRF-CEM leukemia) was 11.8 µM. For the same compound, the GI50 (COLO 205 colon) was 1.89 µM, the TGI (COLO 205 colon) was 4.15 µM and the GI50 (DU-145 prostate) was 2.03 µM. It also gave a TGI (DU-145 prostate) of 4.2 µM, a GI50 (EKVX NSCLC) of 1.95 µM and a TGI (EKVX NSCLC) of 4.29 µM. It also gave a GI50 (HCC-2998 colon) of 1.9 µM, a TGI (HCC-2998 colon) of 3.58 µM and a GI50 (HCT-15 colon) of 1.91 µM. For the same compound, the TGI (HCT-15 colon) was 4.47 µM, the GI50 (HL-60(TB) leukemia) was 2.05 µM and the TGI (HL-60(TB) leukemia) was 8.26 µM. For the same compound, the GI50 (HOP-62 NSCLC) was 2.03 µM, the TGI (HOP-62 NSCLC) was 4.65 µM and the GI50 (HOP-92 NSCLC) was 1.94 µM. The TGI (HOP-92 NSCLC) was 4.38 µM, the GI50 (HS 578T breast) was 2.91 µM and the TGI (HS 578T breast) was 9.88 µM. It also gave a GI50 (HT29 colon) of 2.08 µM, a TGI (HT29 colon) of 4.12 µM and a GI50 (IGROV1 ovarian) of 1.97 µM. It also gave a TGI (IGROV1 ovarian) of 4.24 µM, a GI50 (K-562 leukemia) of 2.6 µM and a TGI (K-562 leukemia) of 9.7 µM. It also gave a GI50 (KM12 colon) of 2.13 µM, a TGI (KM12 colon) of 4.68 µM and a GI50 (LOX IMVI melanoma) of 1.62 µM. It also gave a TGI (LOX IMVI melanoma) of 3.08 µM, a GI50 (M14 melanoma) of 1.63 µM and a TGI (M14 melanoma) of 3.41 µM. It also gave a GI50 (MALME-3M melanoma) of 1.84 µM, a TGI (MALME-3M melanoma) of 3.97 µM and a GI50 (MDA-MB-231 breast) of 1.92 µM. The TGI (MDA-MB-231 breast) was 3.79 µM, the GI50 (MDA-MB-435) was 2.02 µM and the TGI (MDA-MB-435) was 4.59 µM. For the same compound, the GI50 (MOLT-4 leukemia) was 2.58 µM, the TGI (MOLT-4 leukemia) was 13.7 µM and the GI50 (NCI-H226 lung) was 2.75 µM. The TGI (NCI-H226 lung) was 7.24 µM, the GI50 (NCI-H23 lung) was 2 µM and the TGI (NCI-H23 lung) was 4.25 µM. For the same compound, the GI50 (NCI-H460 lung) was 2.14 µM, the TGI (NCI-H460 lung) was 4.4 µM and the GI50 (NCI-H522 lung) was 2.12 µM. The TGI (NCI-H522 lung) was 4.04 µM, the GI50 (NCI/ADR-RES ovarian) was 3.14 µM and the TGI (NCI/ADR-RES ovarian) was 13.5 µM. It also gave a GI50 (OVCAR-3 ovarian) of 1.67 µM, a TGI (OVCAR-3 ovarian) of 3.11 µM and a GI50 (OVCAR-4 ovarian) of 2.46 µM. For the same compound, the TGI (OVCAR-4 ovarian) was 7.55 µM, the GI50 (OVCAR-5 ovarian) was 2.26 µM and the TGI (OVCAR-5 ovarian) was 5.56 µM. The GI50 (OVCAR-8 ovarian) was 3.07 µM, the TGI (OVCAR-8 ovarian) was 8.1 µM and the GI50 (PC-3 prostate) was 1.99 µM. It also gave a TGI (PC-3 prostate) of 4.35 µM, a GI50 (RPMI-8226 leukemia) of 2.92 µM and a TGI (RPMI-8226 leukemia) of 8.29 µM. For the same compound, the GI50 (RXF 393 renal) was 1.86 µM, the TGI (RXF 393 renal) was 3.42 µM and the GI50 (SF-268 CNS) was 1.86 µM. It also gave a TGI (SF-268 CNS) of 3.84 µM, a GI50 (SF-295 CNS) of 2.56 µM and a TGI (SF-295 CNS) of 8.09 µM. For the same compound, the GI50 (SF-539 CNS) was 1.9 µM, the TGI (SF-539 CNS) was 3.95 µM and the GI50 (SK-MEL-2 melanoma) was 2.8 µM. For the same compound, the TGI (SK-MEL-2 melanoma) was 8.2 µM, the GI50 (SK-MEL-28 melanoma) was 2.34 µM and the TGI (SK-MEL-28 melanoma) was 6.04 µM. It also gave a GI50 (SK-MEL-5 melanoma) of 1.91 µM, a TGI (SK-MEL-5 melanoma) of 3.48 µM and a GI50 (SK-OV-3 ovarian) of 12 µM. For the same compound, the TGI (SK-OV-3 ovarian) was 25.2 µM, the GI50 (SN12C renal) was 2.26 µM and the TGI (SN12C renal) was 5.32 µM. It also gave a GI50 (SNB-19 CNS) of 2.45 µM, a TGI (SNB-19 CNS) of 6.51 µM and a GI50 (SNB-75 CNS) of 4.8 µM. The TGI (SNB-75 CNS) was 19.6 µM, the GI50 (SR leukemia) was 1.39 µM and the TGI (SR leukemia) was 11 µM. It also gave a GI50 (SW-620 colon) of 1.87 µM, a TGI (SW-620 colon) of 3.87 µM and a GI50 (T-47D breast) of 2.16 µM. It also gave a TGI (T-47D breast) of 6.2 µM, a GI50 (TK-10 renal) of 2.47 µM and a TGI (TK-10 renal) of 4.74 µM. For the same compound, the GI50 (U251 CNS) was 1.96 µM, the TGI (U251 CNS) was 3.82 µM and the GI50 (UACC-257 melanoma) was 2.25 µM. For the same compound, the TGI (UACC-257 melanoma) was 4.41 µM, the GI50 (UACC-62 melanoma) was 1.99 µM and the TGI (UACC-62 melanoma) was 4.25 µM. For the same compound, the GI50 (UO-31 renal) was 1.47 µM and the TGI (UO-31 renal) was 2.95 µM.

Source: PubChem BioAssay (NCI)
